Structures are written as SMILES.

The assay addresses β-galactosidase (Escherichia coli, UniProt P00722). In words: Kinetics of β-galactosidase hydrolysis of p-NPBG and its inhibition by diethanolamine. Format: biochemical. The conditions noted are these: about 1M diethanolamine, pH 8.6, normal p-NPBG concentrations (up to approximately 5mM). The procedure: β-galactosidase has a pH optimum of 7.4 for p-nitrophenyl-β-D-galactoside (p-NPBG), although in a single assay format using normal substrate concentrations (up to approximately 5mM), the pH can be raised to 8.6 with only a slight loss (approximately 20%) of activity.

Sequence of β-galactosidase (P00722 2-1024): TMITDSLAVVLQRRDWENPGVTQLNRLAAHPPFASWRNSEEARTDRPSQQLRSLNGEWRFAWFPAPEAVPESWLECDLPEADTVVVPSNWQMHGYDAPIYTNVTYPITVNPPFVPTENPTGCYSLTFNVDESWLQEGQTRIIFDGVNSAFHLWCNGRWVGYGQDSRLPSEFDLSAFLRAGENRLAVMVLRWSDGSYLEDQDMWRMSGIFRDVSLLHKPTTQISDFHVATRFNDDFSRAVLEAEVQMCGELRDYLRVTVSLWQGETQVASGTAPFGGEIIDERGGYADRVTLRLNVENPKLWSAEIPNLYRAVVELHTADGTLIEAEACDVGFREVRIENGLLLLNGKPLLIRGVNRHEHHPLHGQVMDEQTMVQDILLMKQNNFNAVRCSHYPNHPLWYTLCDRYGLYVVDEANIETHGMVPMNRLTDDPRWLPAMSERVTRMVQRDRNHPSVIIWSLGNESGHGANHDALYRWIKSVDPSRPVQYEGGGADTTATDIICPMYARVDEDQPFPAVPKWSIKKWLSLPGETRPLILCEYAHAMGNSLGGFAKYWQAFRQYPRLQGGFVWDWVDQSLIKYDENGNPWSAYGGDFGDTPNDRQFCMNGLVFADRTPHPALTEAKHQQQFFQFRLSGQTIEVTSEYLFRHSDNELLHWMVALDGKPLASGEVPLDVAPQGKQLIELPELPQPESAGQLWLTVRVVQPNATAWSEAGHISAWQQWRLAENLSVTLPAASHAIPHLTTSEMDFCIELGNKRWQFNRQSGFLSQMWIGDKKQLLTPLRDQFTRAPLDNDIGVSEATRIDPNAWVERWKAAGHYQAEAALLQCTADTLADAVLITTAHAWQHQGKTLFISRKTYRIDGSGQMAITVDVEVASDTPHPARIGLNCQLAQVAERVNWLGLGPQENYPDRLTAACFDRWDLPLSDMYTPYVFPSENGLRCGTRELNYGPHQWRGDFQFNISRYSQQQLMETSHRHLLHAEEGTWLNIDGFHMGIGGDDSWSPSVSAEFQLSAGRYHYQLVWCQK

Take `OCCNCCO` [diethanolamine]: the “activity of β-galactosidase in the presence of diethanolamine” value is on record as “almost totally abolished”.
